Experiments:
Assay type in all cases: functional
Settings in all cases: read-out: GI
[1] = test system: KM12; experiment: Growth inhibition of human KM12 cells at 10 uM relative to control
[2] = test system: LOX IMVI; experiment: Growth inhibition of human LOX IMVI cells at 10 uM relative to control
[3] = test system: Malme-3M; experiment: Growth inhibition of human Malme-3M cells at 10 uM relative to control
[4] = test system: DU-145; experiment: Growth inhibition of human DU-145 cells at 10 uM relative to control
[5] = test system: RPMI-8226; experiment: Growth inhibition of human RPMI-8226 cells at 10 uM relative to control
[6] = test system: COLO 205; experiment: Growth inhibition of human COLO 205 cells at 10 uM relative to control
[7] = test system: A549; experiment: Growth inhibition of human A549 cells at 10 uM relative to control
[8] = test system: HOP-92; experiment: Growth inhibition of human HOP-92 cells at 10 uM relative to control
[9] = test system: CAKI-1; experiment: Growth inhibition of human CAKI-1 cells at 10 uM relative to control
[10] = test system: SF-268; experiment: Growth inhibition of human SF-268 cells at 10 uM relative to control
[11] = test system: MDA-MB-468; experiment: Growth inhibition of human MDA-MB-468 cells at 10 uM relative to control
[12] = test system: SF-295; experiment: Growth inhibition of human SF-295 cells at 10 uM relative to control
[13] = test system: OVCAR-8; experiment: Growth inhibition of human OVCAR-8 cells at 10 uM relative to control
[14] = test system: SF-539; experiment: Growth inhibition of human SF-539 cells at 10 uM relative to control
[15] = test system: SK-MEL-2; experiment: Growth inhibition of human SK-MEL-2 cells at 10 uM relative to control
[16] = test system: HCT-116; experiment: Growth inhibition of human HCT-116 cells at 10 uM relative to control
[17] = test system: 786-0; experiment: Growth inhibition of human 786-0 cells at 10 uM relative to control
[18] = test system: ACHN; experiment: Growth inhibition of human ACHN cells at 10 uM relative to control
[19] = test system: NCI/ADR-RES; experiment: Growth inhibition of human NCI/ADR-RES cells at 10 uM relative to control
[20] = test system: U-251; experiment: Growth inhibition of human U-251 cells at 10 uM relative to control
[21] = test system: SNB-19; experiment: Growth inhibition of human SNB-19 cells at 10 uM relative to control
[22] = test system: NCI-H322M; experiment: Growth inhibition of human NCI-H322M cells at 10 uM relative to control
[23] = test system: UACC-62; experiment: Growth inhibition of human UACC-62 cells at 10 uM relative to control
[24] = test system: CCRF-CEM; experiment: Growth inhibition of human CCRF-CEM cells at 10 uM relative to control
[25] = test system: T47D; experiment: Growth inhibition of human T47D cells at 10 uM relative to control
[26] = test system: TK-10; experiment: Growth inhibition of human TK-10 cells at 10 uM relative to control
[27] = test system: SK-OV-3; experiment: Growth inhibition of human SK-OV-3 cells at 10 uM relative to control
[28] = test system: HL-60(TB); experiment: Growth inhibition of human HL-60(TB) cells at 10 uM relative to control
[29] = test system: HT-29; experiment: Growth inhibition of human HT-29 cells at 10 uM relative to control

Measured: inhibition of growth at 10 µM

CC1=CN2C(=NC(/C=C/c3ccc(Cl)cc3)=CC2c2ccc(Cl)cc2)S1 (centres undefined)
< 10%: [1] | [2] | [3] | [4] | [5] | [6] | [7] | [8] | [9] | [10] | [11] | [12] | [13] | [14] | [15] | [16] | [17] | [18] | [19] | [20] | [21] | [22] | [23] | [24] | [25] | [26] | [27] | [28] | [29]
